The NIST ThermoML archive (doi:10.1021/je1008747)

Conditions: Liquid

C[C@H](O)C(=O)[O-].C[N+](C)(C)CCO
Conditions	mass density [kg/m3]
293.15 K, 101.33 kPa	1143.2
298.15 K, 101.33 kPa	1139.9
303.15 K, 101.33 kPa	1136.8
308.15 K, 101.33 kPa	1133.6
312.4 K, 100 kPa	1130
312.4 K, 10000 kPa	1133
312.4 K, 20000 kPa	1137
312.4 K, 30000 kPa	1140
312.4 K, 40000 kPa	1143
312.4 K, 50000 kPa	1146
312.4 K, 60000 kPa	1150
312.4 K, 70000 kPa	1152
312.4 K, 80000 kPa	1155
312.4 K, 90000 kPa	1157
312.4 K, 100000 kPa	1160
312.4 K, 110000 kPa	1163
312.4 K, 120000 kPa	1166
312.4 K, 130000 kPa	1168
312.4 K, 140000 kPa	1171
312.4 K, 150000 kPa	1173
312.4 K, 160000 kPa	1176
312.4 K, 170000 kPa	1178
312.4 K, 180000 kPa	1181
312.4 K, 190000 kPa	1183
312.4 K, 200000 kPa	1185
313.15 K, 101.33 kPa	1130.5
318.15 K, 101.33 kPa	1127.3
323.15 K, 101.33 kPa	1124.2
328.15 K, 101.33 kPa	1121.1
332.3 K, 10000 kPa	1121
332.3 K, 20000 kPa	1124
332.3 K, 30000 kPa	1128
332.3 K, 40000 kPa	1131
332.3 K, 50000 kPa	1134
332.3 K, 60000 kPa	1137
332.3 K, 70000 kPa	1140
332.3 K, 80000 kPa	1143
332.3 K, 90000 kPa	1146
332.3 K, 100000 kPa	1149
332.3 K, 110000 kPa	1152
332.3 K, 120000 kPa	1154
332.3 K, 130000 kPa	1157
332.3 K, 140000 kPa	1160
332.3 K, 150000 kPa	1162
332.3 K, 160000 kPa	1165
332.3 K, 170000 kPa	1168
332.3 K, 180000 kPa	1170
332.3 K, 190000 kPa	1172
332.3 K, 200000 kPa	1175
333.15 K, 101.33 kPa	1118.1
338.15 K, 101.33 kPa	1115.1
343.15 K, 101.33 kPa	1112.2
348.15 K, 101.33 kPa	1109.3
352.2 K, 10000 kPa	1109
352.2 K, 20000 kPa	1113
352.2 K, 30000 kPa	1116
352.2 K, 40000 kPa	1120
352.2 K, 50000 kPa	1123
352.2 K, 60000 kPa	1126
352.2 K, 70000 kPa	1129
352.2 K, 80000 kPa	1132
352.2 K, 90000 kPa	1135
352.2 K, 100000 kPa	1138
352.2 K, 110000 kPa	1141
352.2 K, 120000 kPa	1144
352.2 K, 130000 kPa	1146
352.2 K, 140000 kPa	1149
352.2 K, 150000 kPa	1152
352.2 K, 160000 kPa	1154
352.2 K, 170000 kPa	1157
352.2 K, 180000 kPa	1159
352.2 K, 190000 kPa	1162
352.2 K, 200000 kPa	1165
353.15 K, 101.33 kPa	1106.4
372.3 K, 10000 kPa	1098
372.3 K, 20000 kPa	1101
372.3 K, 30000 kPa	1105
372.3 K, 40000 kPa	1109
372.3 K, 50000 kPa	1112
372.3 K, 60000 kPa	1115
372.3 K, 70000 kPa	1118
372.3 K, 80000 kPa	1122
372.3 K, 90000 kPa	1125
372.3 K, 100000 kPa	1128
372.3 K, 110000 kPa	1130
372.3 K, 120000 kPa	1133
372.3 K, 130000 kPa	1136
372.3 K, 140000 kPa	1139
372.3 K, 150000 kPa	1142
372.3 K, 160000 kPa	1144
372.3 K, 170000 kPa	1147
372.3 K, 180000 kPa	1150
372.3 K, 190000 kPa	1152
372.3 K, 200000 kPa	1155
392.4 K, 10000 kPa	1086
392.4 K, 20000 kPa	1090
392.4 K, 30000 kPa	1094
392.4 K, 40000 kPa	1098
392.4 K, 50000 kPa	1101
392.4 K, 60000 kPa	1105
392.4 K, 70000 kPa	1108
392.4 K, 80000 kPa	1111
392.4 K, 90000 kPa	1114
392.4 K, 100000 kPa	1117
392.4 K, 110000 kPa	1121
392.4 K, 120000 kPa	1124
392.4 K, 130000 kPa	1126
392.4 K, 140000 kPa	1129
392.4 K, 150000 kPa	1132
392.4 K, 160000 kPa	1135
392.4 K, 170000 kPa	1138
392.4 K, 180000 kPa	1140
392.4 K, 190000 kPa	1143
392.4 K, 200000 kPa	1146
